The source of these data is ChEMBL document CHEMBL1147504, “Synthesis of methylphenidate analogues and their binding affinities at dopamine and serotonin transport sites” (Bioorg Med Chem Lett, 2004).

Broadly, the Ki is a measure of affinity in units of concentration, obtained from inhibition or displacement. Usually IC50 stands for the concentration that inhibits the measured activity by half. Low readings indicate greater potency in that assay, high ones weaker potency in that assay.

Some results are limits rather than exact numbers.

A short description of test [1]: […]. The test is classed as tissue-based, Frontal cortex.
Test [2] addresses Dopamine receptor.
Description: Potency of inhibiting 10 pM [125I]-RTI-55 binding to dopamine receptor in rat striatal membranes
For test [3], the target named is Sodium-dependent serotonin transporter (Rattus norvegicus, UniProt P31652). In words: Ability to displace 0.4 nM [3H]paroxetine binding to serotonin transporter in rat frontal cortex. It counts as tissue-based.
Chain of Sodium-dependent serotonin transporter (P31652 whole entry): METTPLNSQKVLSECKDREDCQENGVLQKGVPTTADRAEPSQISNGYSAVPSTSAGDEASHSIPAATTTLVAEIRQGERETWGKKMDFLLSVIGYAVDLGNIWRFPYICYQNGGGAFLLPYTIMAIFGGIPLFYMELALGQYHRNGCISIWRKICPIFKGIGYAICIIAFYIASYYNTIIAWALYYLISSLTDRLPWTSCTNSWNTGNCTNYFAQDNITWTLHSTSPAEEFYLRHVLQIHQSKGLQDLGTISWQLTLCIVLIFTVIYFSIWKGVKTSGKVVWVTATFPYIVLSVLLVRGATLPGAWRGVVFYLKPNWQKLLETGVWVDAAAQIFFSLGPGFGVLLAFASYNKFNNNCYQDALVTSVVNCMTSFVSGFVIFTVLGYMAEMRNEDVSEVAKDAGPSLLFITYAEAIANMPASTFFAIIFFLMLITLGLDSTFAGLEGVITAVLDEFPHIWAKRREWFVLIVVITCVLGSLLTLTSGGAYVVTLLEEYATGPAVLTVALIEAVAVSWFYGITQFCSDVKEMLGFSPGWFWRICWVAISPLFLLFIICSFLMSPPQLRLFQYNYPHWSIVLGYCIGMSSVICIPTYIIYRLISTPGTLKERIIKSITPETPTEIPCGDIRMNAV
In test [4] the target is T1, Sodium-dependent dopamine transporter (Rattus norvegicus, UniProt P23977).
T1 sequence (P23977 whole entry): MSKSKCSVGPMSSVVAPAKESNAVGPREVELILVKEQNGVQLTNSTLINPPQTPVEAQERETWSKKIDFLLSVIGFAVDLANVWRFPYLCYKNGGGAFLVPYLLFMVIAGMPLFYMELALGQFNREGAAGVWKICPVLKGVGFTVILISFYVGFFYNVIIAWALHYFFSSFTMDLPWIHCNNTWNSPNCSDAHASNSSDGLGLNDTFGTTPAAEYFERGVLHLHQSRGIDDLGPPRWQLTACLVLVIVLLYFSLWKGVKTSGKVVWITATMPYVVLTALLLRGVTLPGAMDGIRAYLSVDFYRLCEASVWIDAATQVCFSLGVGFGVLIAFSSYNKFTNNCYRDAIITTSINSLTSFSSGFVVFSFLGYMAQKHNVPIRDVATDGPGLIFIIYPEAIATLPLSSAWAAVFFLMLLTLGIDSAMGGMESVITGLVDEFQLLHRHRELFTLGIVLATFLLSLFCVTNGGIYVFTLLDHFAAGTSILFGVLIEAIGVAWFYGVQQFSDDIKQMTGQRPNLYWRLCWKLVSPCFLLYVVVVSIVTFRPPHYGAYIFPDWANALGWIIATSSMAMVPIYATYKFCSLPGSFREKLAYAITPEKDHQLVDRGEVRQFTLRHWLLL
Description: Potency of inhibiting 10 pM [125I]RTI-55 binding to dopamine transporter in rat striatal membranes
Test [5] deals with Dopamine receptor. In words: Potency of inhibiting [3H]WIN-35428 binding to […] in rat striatal membranes. It counts as cell membranes, Membrane.
Test [6] deals with T1, Sodium-dependent dopamine transporter. The test is described as follows: Inhibitory activity against dopamine transporter in rat striatal membranes. It counts as cell membranes, Striatum, Membrane.

As for `COC(=O)[C@H](c1ccc2ccccc2c1)[C@H]1CCCCN1.Cl`, in test [1], the inhibition constant Ki stood at 94.8 nM. For the same compound, on Dopamine receptor [2], the 50% inhibitory concentration (IC50) is recorded as 11.1 nM.

With `COC(=O)[C@H](c1ccc2cc(Br)ccc2c1)[C@@H]1CCCN1`, the inhibitory constant (Ki) in test [3] was 5.5 nM. In test [4], the IC50 worked out at 446 nM.

Compound `COC(=O)[C@@H](c1ccc2ccccc2c1)[C@H]1CCCN1` yielded a Ki in test [3] of 2020 nM.

In test [3], `COC(=O)[C@H](c1ccc2cc(OC)ccc2c1)[C@@H]1CCCN1` came in with a Ki of 54.6 nM.

On to `COC(=O)[C@H](c1ccc2ccccc2c1)[C@@H]1CCCN1`, for which the affinity in test [3] corresponds to a Ki of 2.5 nM. It took 465 nM to reach half-maximal inhibition in test [4] (IC50).

As for `COC(=O)[C@H](c1ccc(-c2ccccc2)cc1)[C@H]1CCCCN1.Cl` (racemic), the inhibition constant Ki in test [1] is over 10000 nM. Further, the IC50 against Dopamine receptor [2] came to 1020 nM.

In test [3], `COC(=O)[C@H](c1ccccc1)[C@@H]1CCCN1` (racemic) came in with a Ki of over 10000 nM. Moreover, the IC50 in test [4] was over 1000 nM.

In turn, `COC(=O)[C@H](c1ccc2ccccc2c1)[C@H]1CCCCN1` (racemic) yielded a Ki in test [1] of 71.6 nM.

For the compound `COC(=O)[C@H](c1ccc(Cl)cc1)[C@H]1CCCN1` (racemic), in test [3], the inhibitory constant (Ki) came out at 1080 nM. For the same compound, in test [4], the concentration for half-maximal inhibition (IC50) was 272 nM.

In the case of `COC(=O)[C@H](c1ccc(Cl)cc1)[C@@H]1CCCCN1` (racemic), the Ki in test [1] was over 10000 nM.

`COC(=O)[C@H](c1ccc(Br)cc1)[C@@H]1CCCN1` (racemic): in test [3], the inhibition constant Ki was over 10000 nM. Half-maximal inhibition in test [4] (IC50) required 637 nM.

In test [3], `COC(=O)[C@H](c1ccc2cc(Br)ccc2c1)[C@@H]1CCCN1` (racemic) had a Ki of 11.4 nM. Further, the IC50 in test [4] is 195 nM.

Turning to `COC(=O)[C@H](c1ccc(C)cc1)[C@H]1CCCN1` (racemic), in test [3], the Ki was over 10000 nM. The compound also displayed an IC50 in test [4] of 1930 nM.

In test [1], `COC(=O)[C@H](c1ccc(Cl)cc1)[C@H]1CCCCN1.Cl` (racemic) yielded an inhibition constant (Ki) of 2220 nM. The IC50 on Dopamine receptor [5] is recorded as 20.6 nM; against Dopamine receptor [2], 91.2 nM.

Regarding `COC(=O)[C@H](c1ccccc1)[C@H]1CCCN1` (racemic), the concentration for half-maximal inhibition (IC50) in test [6] was 1340 nM; in test [4], 3160 nM. In test [3], this compound came in with a Ki of over 10000 nM.

Compound `COC(=O)[C@H](c1ccccc1)[C@@H]1CCCCN1.Cl` (racemic) came in with a Ki in test [1] of over 10000 nM. For the same compound, at Dopamine receptor [2], the half-inhibitory concentration (IC50) is on record as over 1000 nM.

Take `COC(=O)[C@H](c1ccc(C)cc1)[C@@H]1CCCN1` (racemic): in test [3], the Ki is over 10000 nM. The IC50 in test [4] was over 1000 nM.

For `COC(=O)[C@H](c1ccc(C)cc1)[C@@H]1CCCCN1.Cl` (racemic), the inhibition constant (Ki) in test [1] was over 10000 nM. On Dopamine receptor [2], this compound came in with an IC50 of 7430 nM.

In the case of `COC(=O)[C@H](c1ccc2ccccc2c1)[C@@H]1CCCCN1.Cl` (racemic), the inhibition constant (Ki) in test [1] is 105 nM. For the same compound, the IC50 against Dopamine receptor [2] is 2080 nM.

Take `COC(=O)[C@H](c1ccc2cc(OC)ccc2c1)[C@@H]1CCCN1` (racemic): the Ki in test [3] came to 245 nM.

Compound `COC(=O)[C@H](c1ccc(Cl)c(Cl)c1)[C@@H]1CCCCN1.Cl` (racemic) registered a Ki in test [1] of over 10000 nM. The IC50 on Dopamine receptor [2] is recorded as 33.8 nM.

`COC(=O)[C@H](c1ccc(-c2ccccc2)cc1)[C@@H]1CCCCN1.Cl` (racemic) had an inhibitory constant (Ki) in test [1] of over 10000 nM. The half-maximal inhibitory concentration (IC50) at Dopamine receptor [2] is reported as 6470 nM.

`COC(=O)[C@H](c1ccc(Cl)cc1)[C@@H]1CCCN1` (racemic) had a Ki in test [3] of 1900 nM. The compound also registered an IC50 in test [4] of over 1000 nM.

In the case of `COC(=O)[C@H](c1ccc(C)cc1)[C@H]1CCCCN1.Cl` (racemic), in test [1], the Ki was over 10000 nM. Further, the IC50 at Dopamine receptor [5] was 33 nM; at Dopamine receptor [2], 114 nM.

The compound `COC(=O)[C@H](c1ccc2ccccc2c1)[C@@H]1CCCN1` (racemic) came in with a Ki in test [3] of 4 nM. The compound also showed an IC50 in test [4] of 805 nM.

For the compound `COC(=O)[C@H](c1ccc(Cl)c(Cl)c1)[C@H]1CCCCN1.Cl` (racemic), the inhibition constant (Ki) in test [1] was over 10000 nM. The IC50 came out at 5.3 nM at Dopamine receptor [5] and 2.67 nM against Dopamine receptor [2].

With `COC(=O)[C@H](c1ccccc1)[C@H]1CCCCN1.Cl` (racemic) [DEXMETHYLPHENIDATE HYDROCHLORIDE], the inhibition constant Ki in test [1] was over 10000 nM. In addition, the figures for the IC50 at Dopamine receptor [5] and against Dopamine receptor [2] were 83 nM and 164 nM, respectively.

In the case of `COC(=O)[C@H](c1ccc2cc(C)ccc2c1)[C@@H]1CCCN1` (stereo in doubt), the Ki in test [3] worked out at 2.3 nM. This compound also gave an IC50 in test [4] of 850 nM.

Take `COC(=O)[C@H](c1ccc2cc(C)ccc2c1)[C@@H]1CCCN1` (stereo in doubt; 10i): the affinity in test [3], expressed as Ki, was 3.2 nM. The compound also returned an IC50 in test [4] of 1410 nM.
